Test results from the supplement of paper PMC10307832.

Assays:
Assay in all cases: relative viability (nuclei count vs DMSO), 5 days (fraction); higher = more cells survive
NCI-H2009 = tested on: NCI-H2009
Method in brief: (§1)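 One day after seeding in 1536-well plates, lung cancer cell lines were dosed by pin tool. Dosing was either single-drug or a fixed anchor-drug dose plus five library-drug doses (not always all listed) in √10 steps. After 5 days, nuclei were stained in one fix-and-stain step and counted on 4× images, and relative viability is the nuclei count of treated wells over that of vehicle wells, given as the median of duplicate plates.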

NCI-H2170 = tested on: NCI-H2170
Method in brief: as §1

NCI-H1755 = tested on: NCI-H1755
Method in brief: as §1

EMC-BAC-2 = tested on: EMC-BAC-2
Method in brief: as §1

NCI-H1651 = tested on: NCI-H1651
Method in brief: as §1

H3255 = tested on: H3255
Method in brief: as §1

HOP-62 = tested on: HOP-62
Method in brief: as §1

NCI-H322M = tested on: NCI-H322M
Method in brief: as §1

ABC-1 = tested on: ABC-1
Method in brief: as §1

NCI-H596 = tested on: NCI-H596
Method in brief: as §1

NCI-H2126 = tested on: NCI-H2126
Method in brief: as §1

201T = tested on: 201T
Method in brief: as §1

NCI-H3122 = tested on: NCI-H3122
Method in brief: as §1

LK-2 = tested on: LK-2
Method in brief: as §1

NCI-H1734 = tested on: NCI-H1734
Method in brief: as §1

CAL-12T = tested on: CAL-12T
Method in brief: as §1

SK-MES-1 = tested on: SK-MES-1
Method in brief: as §1

NCI-H2087 = tested on: NCI-H2087
Method in brief: as §1

NCI-H441 = tested on: NCI-H441
Method in brief: as §1

PC-14 = tested on: PC-14
Method in brief: as §1

ChaGo-K-1 = tested on: ChaGo-K-1
Method in brief: as §1

NCI-H647 = tested on: NCI-H647
Method in brief: as §1

LXF-289 = tested on: LXF-289
Method in brief: as §1

O=c1[nH]c2ccccc2n1C1CCN(CCCC(c2ccc(F)cc2)c2ccc(F)cc2)CC1 [Pimozide] + COc1cc2c(Oc3ccc(NC(=O)C4(C(=O)Nc5ccc(F)cc5)CC4)cc3F)ccnc2cc1OCCCN1CCOCC1 [Foretinib] (partner 0.25 µM)
relative viability (NCI-H2009; first compound 0.08 µM): 1.24
relative viability (NCI-H2009; first compound 0.253 µM): 1.12
relative viability (NCI-H2009; first compound 0.8 µM): 1.19
relative viability (NCI-H2009; first compound 2.53 µM): 1.09
relative viability (NCI-H2009; first compound 8 µM): 1.13
relative viability (NCI-H2170; first compound 0.08 µM): 1.04
relative viability (NCI-H2170; first compound 0.253 µM): 1.03
relative viability (NCI-H2170; first compound 0.8 µM): 0.985
relative viability (NCI-H2170; first compound 2.53 µM): 0.99
relative viability (NCI-H2170; first compound 8 µM): 1.06
relative viability (NCI-H1755; first compound 0.08 µM): 0.929
relative viability (NCI-H1755; first compound 0.253 µM): 0.928
relative viability (NCI-H1755; first compound 0.8 µM): 0.874
relative viability (NCI-H1755; first compound 2.53 µM): 0.948
relative viability (NCI-H1755; first compound 8 µM): 0.812
relative viability (EMC-BAC-2; first compound 0.08 µM): 0.989
relative viability (EMC-BAC-2; first compound 0.253 µM): 1.03
relative viability (EMC-BAC-2; first compound 0.8 µM): 0.986
relative viability (EMC-BAC-2; first compound 2.53 µM): 0.841
relative viability (EMC-BAC-2; first compound 8 µM): 0.686
relative viability (NCI-H1651; first compound 0.08 µM): 0.763
relative viability (NCI-H1651; first compound 0.253 µM): 0.717
relative viability (NCI-H1651; first compound 0.8 µM): 0.867
relative viability (NCI-H1651; first compound 2.53 µM): 0.871
relative viability (NCI-H1651; first compound 8 µM): 0.869
relative viability (H3255; first compound 0.253 µM): 0.781
relative viability (H3255; first compound 0.8 µM): 0.775
relative viability (H3255; first compound 2.53 µM): 0.78
relative viability (H3255; first compound 8 µM): 0.894
relative viability (HOP-62; first compound 0.08 µM): 1.05
relative viability (HOP-62; first compound 0.253 µM): 1.14
relative viability (HOP-62; first compound 2.53 µM): 1.04
relative viability (HOP-62; first compound 8 µM): 1.03
relative viability (NCI-H322M; first compound 0.253 µM): 1.04
relative viability (NCI-H322M; first compound 0.8 µM): 0.85
relative viability (NCI-H322M; first compound 2.53 µM): 0.942
relative viability (NCI-H322M; first compound 8 µM): 0.844
relative viability (ABC-1; first compound 0.08 µM): 1.11
relative viability (ABC-1; first compound 0.253 µM): 0.995
relative viability (ABC-1; first compound 0.8 µM): 0.723
relative viability (ABC-1; first compound 2.53 µM): 0.891
relative viability (ABC-1; first compound 8 µM): 0.767
relative viability (NCI-H596; first compound 0.08 µM): 0.883
relative viability (NCI-H596; first compound 0.253 µM): 0.902
relative viability (NCI-H596; first compound 0.8 µM): 1.02
relative viability (NCI-H596; first compound 2.53 µM): 0.78
relative viability (NCI-H596; first compound 8 µM): 0.821
relative viability (NCI-H2126; first compound 0.08 µM): 1.39
relative viability (NCI-H2126; first compound 0.253 µM): 1.14
relative viability (NCI-H2126; first compound 0.8 µM): 1.06
relative viability (NCI-H2126; first compound 2.53 µM): 1.23
relative viability (NCI-H2126; first compound 8 µM): 1.13
relative viability (201T; first compound 0.08 µM): 1.08
relative viability (201T; first compound 0.253 µM): 1.06
relative viability (201T; first compound 0.8 µM): 0.979
relative viability (201T; first compound 2.53 µM): 1.02
relative viability (201T; first compound 8 µM): 0.909
relative viability (NCI-H3122; first compound 0.08 µM): 0.911
relative viability (NCI-H3122; first compound 0.253 µM): 1
relative viability (NCI-H3122; first compound 0.8 µM): 0.91
relative viability (NCI-H3122; first compound 2.53 µM): 0.968
relative viability (NCI-H3122; first compound 8 µM): 0.923
relative viability (LK-2; first compound 0.08 µM): 1.65
relative viability (LK-2; first compound 0.253 µM): 0.98
relative viability (LK-2; first compound 2.53 µM): 0.875
relative viability (LK-2; first compound 8 µM): 1.24
relative viability (NCI-H1734; first compound 0.08 µM): 0.77
relative viability (NCI-H1734; first compound 0.253 µM): 0.767
relative viability (NCI-H1734; first compound 2.53 µM): 0.883
relative viability (NCI-H1734; first compound 8 µM): 0.834
relative viability (CAL-12T; first compound 0.08 µM): 0.979
relative viability (CAL-12T; first compound 0.253 µM): 1.17
relative viability (CAL-12T; first compound 0.8 µM): 1.11
relative viability (CAL-12T; first compound 2.53 µM): 0.928
relative viability (CAL-12T; first compound 8 µM): 0.96
relative viability (SK-MES-1; first compound 0.08 µM): 0.614
relative viability (SK-MES-1; first compound 0.253 µM): 0.955
relative viability (SK-MES-1; first compound 0.8 µM): 1.06
relative viability (SK-MES-1; first compound 2.53 µM): 1.06
relative viability (SK-MES-1; first compound 8 µM): 0.94
relative viability (NCI-H2087; first compound 0.08 µM): 1.21
relative viability (NCI-H2087; first compound 0.253 µM): 0.984
relative viability (NCI-H2087; first compound 2.53 µM): 1.17
relative viability (NCI-H2087; first compound 8 µM): 1.09
relative viability (NCI-H441; first compound 0.08 µM): 1.09
relative viability (NCI-H441; first compound 0.253 µM): 1.16
relative viability (NCI-H441; first compound 0.8 µM): 1.1
relative viability (NCI-H441; first compound 2.53 µM): 0.948
relative viability (NCI-H441; first compound 8 µM): 0.922
relative viability (PC-14; first compound 0.253 µM): 1
relative viability (PC-14; first compound 0.8 µM): 0.943
relative viability (PC-14; first compound 2.53 µM): 0.965
relative viability (PC-14; first compound 8 µM): 1.02
relative viability (ChaGo-K-1; first compound 0.08 µM): 0.937
relative viability (ChaGo-K-1; first compound 0.253 µM): 0.899
relative viability (ChaGo-K-1; first compound 0.8 µM): 0.879
relative viability (ChaGo-K-1; first compound 2.53 µM): 0.811
relative viability (ChaGo-K-1; first compound 8 µM): 0.908
relative viability (NCI-H647; first compound 0.08 µM): 1.28
relative viability (NCI-H647; first compound 0.253 µM): 1.17
relative viability (NCI-H647; first compound 0.8 µM): 1.14
relative viability (NCI-H647; first compound 2.53 µM): 1.22
relative viability (NCI-H647; first compound 8 µM): 1.17
relative viability (LXF-289; first compound 0.08 µM): 0.989
relative viability (LXF-289; first compound 0.253 µM): 0.929
relative viability (LXF-289; first compound 0.8 µM): 0.944
relative viability (LXF-289; first compound 2.53 µM): 0.892
relative viability (LXF-289; first compound 8 µM): 0.934
